According to article PMC4166032 (Bioconjugate Chemistry, 2014):
Where two headings read alike, the source gives them in different places. Blank lines part the entries; values can stand above or below the compound they belong to.

Legend:
[1] = biological target: T1, GST-hPXR-LBD (Homo sapiens, UniProt O75469); experiment: biochemical
T1 sequence (O75469 146-433 limits assumed): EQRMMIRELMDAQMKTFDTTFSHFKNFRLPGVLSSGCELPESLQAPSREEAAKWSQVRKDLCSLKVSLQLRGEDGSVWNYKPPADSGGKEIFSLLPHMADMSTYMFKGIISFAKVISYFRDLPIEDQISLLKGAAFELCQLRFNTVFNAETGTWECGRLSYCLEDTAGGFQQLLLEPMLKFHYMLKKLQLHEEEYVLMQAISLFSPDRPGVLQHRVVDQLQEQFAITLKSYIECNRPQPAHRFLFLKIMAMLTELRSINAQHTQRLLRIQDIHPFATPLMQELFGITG

[2] = biological target: T1, GST-hPXR-LBD
[3] = tested on: PXR; settings: cited from earlier work; for IC50: read-out: reported IC50, BODIPY FL vinblastine (4) as fluorescent probe
[4] = biological target: T1, GST-hPXR-LBD; experiment: biochemical; settings: 30 min

Structure (SMILES): CCC12C=CCN3CC[C@@]4(c5ccc(OC)cc5N(C)[C@H]4[C@@](O)(C(=O)OC)[C@@H]1OC(C)=O)[C@@H]32 (some centres unmarked) [vindoline (14), vindoline]
IC50 [1]: 12.9 µM | Ki [1]: 11.2 µM | inhibitory activity at 100 μM [2]: 93%

Structure (SMILES): CC[C@]1(O)C[C@@H]2CN(CCc3c([nH]c4ccccc34)[C@@](C(=O)OC)(c3cc4c(cc3OC)N(C)[C@H]3[C@@](O)(C(=O)OC)[C@H](OC(C)=O)[C@]5(CC)C=CCN6CC[C@]43[C@@H]65)C2)C1 [vinblastine (10), vinblastine]
PXR-specific binding affinity [3]: low PXR-specific binding affinity

IC50 ([4]; IC50 with 50 nM 20, 50 nM BODIPY FL vindoline (20) probe): 20.7 µM | IC50 ([4]; IC50 with 100 nM 20, 100 nM BODIPY FL vindoline (20) probe, laboratory assay buffer, 1.1% DMSO): 37.7 µM
Structure (SMILES): C[C@@H]1C(=O)O[C@H]2C[C@@]34[C@H]5C[C@@H](C(C)(C)C)[C@]36[C@@H](OC(=O)[C@@H]6O)O[C@@]4(C(=O)O5)[C@]21O [ginkgolide A (8), ginkgolide A]
IC50 [3]: 13.7 µM

Structure (SMILES): Clc1ccccc1C(c1ccccc1)(c1ccccc1)n1ccnc1 [clotrimazole (6), clotrimazole]
IC50 [3]: 1.94 µM
